Measured values taken from patent publication US20220349875A1, “METHOD TO INDEPENDENTLY ANALYZE MULTIPLE BIOLOGICAL PROCESSES IN ENCAPSULATED 3D CELL CO-CULTURES” (UNIVERSITÉ DE GENÈVE, priority 2019, published 2022).

Columns and labels:
[1] = system: BC cells stably expressing the reporter zipGFP-Casp3; assay: Apoptosis of encapsulated BC cells (zipGFP-Casp3 reporter), monoculture or multi-culture with LC cells; type: cell-based; settings: micromolar Tamoxifen (1 μM to 10 μM), 96 hours, with vs without LC cells; FIG. 4
Method: Image acquisition was performed with an automated confocal microscope. Cell segmentation and quantification of cell fluorescence intensities were performed with the software MetaXpress (Molecular Devices). For the quantification of apoptosis, cell fluorescence intensities from far-red-labelled capsules were measured and the green fluorescence was normalized with the red fluorescence. […] Data is representative of 3 independent replicates.
Dispense capsules in wells of a 96-well imaging quality plate by continuously pipetting up and down to maintain the capsules in suspension before transferring the proper volume into the well.
Half of wells are not filled with LC capsules (conditions with BC cells only)
Incubate the plate at 37° C. for 96 hours.

[2] = system: BC cells stably expressing the dual-reporter FUCCI; assay: Proliferation of encapsulated BC cells (FUCCI dual reporter), monoculture or multi-culture with LC cells; type: cell-based; settings: micromolar Tamoxifen (1 μM to 10 μM), 96 hours; FIG. 5
From the text: LC cells were encapsulated in green-labelled alginate capsules, BC cells stably expressing the dual reporter gene FUCCI (active proliferating cells are green, not-proliferating cells (latent) are red) were encapsulated in unlabelled alginate capsules, and BC cells stably expressing the reporter gene zipGFP-Casp3 (all cells are red (reporter expression control) and cells become green upon apoptosis induction) were encapsulated in far-red-labelled alginate capsules. […] Image acquisition was performed with an automated confocal microscope. Cell segmentation and quantification of cell fluorescence intensities were performed with the software MetaXpress (Molecular Devices). For the quantification of proliferation, cell fluorescence intensities from unlabelled capsules were measured. […] Data is representative of 3 independent replicates.
Induction of apoptosis is measured by automated confocal microscopy (HCS) in BC cells stably expressing the reporter zipGFP-Casp3 and proliferation is measured at the same time in BC cells stably expressing the dual-reporter FUCCI. […]

SMILES: CC/C(=C(\c1ccccc1)c1ccc(OCCN(C)C)cc1)c1ccccc1 [Tamoxifen]
- induction of apoptosis in BC cells [1]: increased by Tamoxifen in a dose-dependent manner only in co-culture with LC cells
- cell proliferation inhibition [2]: already maximal at 1 μM
